The source of these data is PubChem BioAssay (NCI).

Structures are written as SMILES. Values joined by “and” are separate entries in the source; they are usually repeats but may differ in a detail not shown here. Equal values may be shown once.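 Briefly, cells in 96-well plates were exposed to five compound concentrations for 48 h, and endpoints were estimated by linear interpolation. Here, GI50 denotes the concentration required for 50% inhibition of growth. TGI marks complete inhibition of growth.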

Some test systems named below: KM12 colon; SK-MEL-28 melanoma; COLO 205 colon; RPMI-8226 leukemia; SNB-19 CNS; OVCAR-4 ovarian; HCT-116 colon; 786-0 renal; RXF 393 renal; A498 renal.
Common to all, as to assay: inhibition of tumour cell growth, NCI panel, 48 h

Regarding `Nc1cccc2c1C(=O)N(C1CCC(=O)NC1=O)C2=O` (centres undefined), the GI50 in the test on KM12 colon, with SK-MEL-28 melanoma, in the test with COLO 205 colon, in the test with RPMI-8226 leukemia, in the test on SNB-19 CNS and in the test on OVCAR-4 ovarian was over 100 µM throughout. The GI50 in the test on HCT-116 colon, in the test with 786-0 renal, with RXF 393 renal and in the test with A498 renal was over 100 µM in each case. The TGI in the test on KM12 colon, with SK-MEL-28 melanoma, with COLO 205 colon, in the test on RPMI-8226 leukemia, with SNB-19 CNS and with OVCAR-4 ovarian was over 100 µM each time. Moreover, the TGI with HCT-116 colon, in the test on 786-0 renal, in the test with RXF 393 renal and with A498 renal was over 100 µM throughout.

Turning to `Cc1cc2c(C)c3cc(C)c(N)cc3nc2cc1N`, the GI50 is 0.745 µM in the test with KM12 colon; 2.69 µM in the test with SK-MEL-28 melanoma; 0.581 µM with COLO 205 colon; 1.33 µM with RPMI-8226 leukemia; 0.685 µM in the test on SNB-19 CNS; 1.1 µM in the test with OVCAR-4 ovarian. The GI50 is 0.383 µM in the test on HCT-116 colon, 0.929 µM in the test with 786-0 renal, 1.16 µM in the test on RXF 393 renal and 0.363 µM with A498 renal. In addition, the TGI was determined as 10.2 µM with KM12 colon; 10.5 µM in the test with SK-MEL-28 melanoma; 3.31 µM in the test with COLO 205 colon; 5.92 µM with RPMI-8226 leukemia; 10.2 µM in the test on SNB-19 CNS; 3.92 µM with OVCAR-4 ovarian. In addition, the TGI turned out to be 6.14 µM in the test on HCT-116 colon, 8.84 µM in the test with 786-0 renal, 4.42 µM in the test with RXF 393 renal and 2.01 µM in the test on A498 renal.

With `O=c1c(Cl)nnc2sc3ccccc3n12`, the GI50 in the test with KM12 colon was 32.3 µM; with SK-MEL-28 melanoma, 59 µM; in the test on COLO 205 colon, 47 µM; with RPMI-8226 leukemia, 27.9 µM; with SNB-19 CNS, 77.5 µM; in the test with OVCAR-4 ovarian, 46.9 µM. The GI50 in the test with HCT-116 colon is 20.4 µM; in the test on 786-0 renal, 64.7 µM; in the test with RXF 393 renal, 27.8 µM; in the test with A498 renal, over 100 µM. Moreover, the TGI in the test with KM12 colon, in the test on SK-MEL-28 melanoma, in the test with COLO 205 colon, with RPMI-8226 leukemia, with SNB-19 CNS and with OVCAR-4 ovarian was over 100 µM throughout. The TGI in the test on HCT-116 colon was 68.3 µM; in the test with 786-0 renal it was over 100 µM; in the test on RXF 393 renal, 81.9 µM; in the test on A498 renal it was over 100 µM.

For the compound `OB([O][Hg][c]1ccccc1)[O][Hg][c]1ccccc1`, the GI50 is 1.59 µM with KM12 colon; 0.318 µM with SK-MEL-28 melanoma; 0.502 µM with COLO 205 colon; 0.211 µM in the test with RPMI-8226 leukemia; 1.46 µM with SNB-19 CNS; 0.334 µM with OVCAR-4 ovarian. The GI50 was 0.161 µM with HCT-116 colon, 0.281 µM in the test with 786-0 renal, 0.229 µM in the test with RXF 393 renal and 0.98 µM in the test with A498 renal. Also, the TGI turned out to be 3.04 µM with KM12 colon; 1.33 µM in the test with SK-MEL-28 melanoma; 1.46 µM in the test with COLO 205 colon; 0.592 µM in the test with RPMI-8226 leukemia; 2.84 µM in the test with SNB-19 CNS; 2.01 µM in the test with OVCAR-4 ovarian. Further, the TGI with HCT-116 colon was 0.307 µM; in the test with 786-0 renal it was 0.856 µM; with RXF 393 renal, 0.829 µM; with A498 renal it was 2.48 µM.

Consider `CCOC(=O)CCC(NC(=O)c1ccc(N=Cc2nc3cc(C(F)(F)F)ccc3nc2-c2ccccc2)cc1)C(=O)OCC` (centres undefined), for which the GI50 in the test on KM12 colon is over 100 µM; with SK-MEL-28 melanoma, over 100 µM; with COLO 205 colon, over 100 µM; in the test with RPMI-8226 leukemia it was over 100 µM; with SNB-19 CNS it was 8.51 µM; in the test on OVCAR-4 ovarian it was over 100 µM. In addition, the GI50 was 44.7 µM in the test on HCT-116 colon, 30.8 µM with 786-0 renal and 3.1 µM in the test on RXF 393 renal. The TGI with KM12 colon was 50 µM and > 100 µM; in the test with SK-MEL-28 melanoma, over 100 µM; in the test on COLO 205 colon, 50 µM and > 100 µM; with RPMI-8226 leukemia it was over 100 µM; in the test on SNB-19 CNS, 29.2 µM and 31.9 µM; in the test with OVCAR-4 ovarian it was 50 µM and > 100 µM. In addition, the TGI with HCT-116 colon was 19.4 µM and > 100 µM; in the test on 786-0 renal it was 18.9 µM and > 100 µM; with RXF 393 renal it was 17.2 µM and 20.2 µM; in the test on A498 renal, 75 µM.

Take `O=C1CC(=O)N(C2CCCCC2)C(=O)N1c1ccccc1S(=O)(=O)Oc1ccccc1`: the TGI in the test with KM12 colon is over 100 µM; in the test with SK-MEL-28 melanoma it was over 100 µM; in the test with COLO 205 colon, over 100 µM; in the test with RPMI-8226 leukemia, 97.1 µM; in the test with SNB-19 CNS, over 100 µM; in the test on OVCAR-4 ovarian, over 100 µM. The TGI in the test with HCT-116 colon was over 100 µM; in the test on 786-0 renal, 33.3 µM; in the test on RXF 393 renal, over 100 µM; in the test on A498 renal it was over 100 µM.

As to `C[C@@H](c1ccc2nccn2c1)n1nnc2ncc(-c3cnn(C)c3)nc21`, the GI50 is 43.3 µM with KM12 colon; over 100 µM in the test on SK-MEL-28 melanoma; over 100 µM with COLO 205 colon; 47.6 µM in the test with RPMI-8226 leukemia; over 100 µM in the test with SNB-19 CNS; 65.1 µM with OVCAR-4 ovarian. Also, the GI50 in the test with HCT-116 colon is over 100 µM; in the test on 786-0 renal, over 100 µM; in the test on RXF 393 renal it was over 100 µM; with A498 renal, 72.8 µM. Also, the TGI in the test with KM12 colon, in the test on SK-MEL-28 melanoma, with COLO 205 colon, in the test on RPMI-8226 leukemia, in the test on SNB-19 CNS and with OVCAR-4 ovarian was over 100 µM each time. Also, the TGI in the test on HCT-116 colon, in the test on 786-0 renal, with RXF 393 renal and with A498 renal was over 100 µM throughout.

On to `CC(=O)Oc1c(C)n(CCCl)ccc1=O`, for which the TGI in the test with KM12 colon, in the test with SK-MEL-28 melanoma, in the test on COLO 205 colon, in the test on RPMI-8226 leukemia, with SNB-19 CNS and with OVCAR-4 ovarian was over 100 µM throughout. The TGI in the test with HCT-116 colon, in the test with 786-0 renal, with RXF 393 renal and in the test with A498 renal was over 100 µM in each case.

As for `NNC(=O)/C(=C/c1cccc([N+](=O)[O-])c1)NC(=O)c1ccccc1`, the TGI with KM12 colon, in the test on SK-MEL-28 melanoma, in the test with COLO 205 colon, in the test with RPMI-8226 leukemia, in the test with SNB-19 CNS and in the test on OVCAR-4 ovarian was over 100 µM in each case. Also, the TGI in the test on HCT-116 colon, in the test with 786-0 renal, in the test with RXF 393 renal and in the test with A498 renal was over 100 µM throughout.

For the compound `CC(Cc1ccc(Cl)cc1Cl)NO` (centres undefined), the TGI in the test on KM12 colon, in the test with SK-MEL-28 melanoma, with COLO 205 colon, in the test on RPMI-8226 leukemia, with SNB-19 CNS and with OVCAR-4 ovarian was over 100 µM in each case. For the same compound, the TGI with HCT-116 colon, in the test with 786-0 renal, in the test with RXF 393 renal and in the test on A498 renal was over 100 µM in each case.

For the compound `O=S(=O)(c1ccc(NC(=S)N/N=C/c2ccccc2O)cc1)N1CCCCC1`, the TGI is 12.9 µM in the test on KM12 colon; over 52 µM with SK-MEL-28 melanoma; 36.5 µM in the test with COLO 205 colon; 8.17 µM with RPMI-8226 leukemia; over 100 µM in the test on SNB-19 CNS; over 71.4 µM with OVCAR-4 ovarian. Further, the TGI in the test on HCT-116 colon is 7 µM; in the test with 786-0 renal, 4.34 µM; with RXF 393 renal it was over 100 µM; in the test on A498 renal it was 27.9 µM.

`Nc1nc(N)[n+]([O-])c(N)c1NCO`: the TGI in the test with KM12 colon, in the test on SK-MEL-28 melanoma, in the test with COLO 205 colon, in the test with RPMI-8226 leukemia, in the test with SNB-19 CNS and in the test on OVCAR-4 ovarian was over 100 µM throughout. The TGI with HCT-116 colon, with 786-0 renal, with RXF 393 renal and in the test on A498 renal was over 100 µM throughout.
